One data set has as its system Erythrocyte. The data set is described as follows: Drug uptake in human erythrocytes after 30 to 45 mins by mitotracker red dye based flow cytometric method. The class given is ADME, cell-based. On the technique in general: A flow cytometer gives signals particle by particle.
Data set [1] in a line: Drug uptake in food vacuole of asexual blood stage of Plasmodium falciparum D10-ACPLEADER-GFP schizont forms infected in human erythrocytes at 150 uM after 30 to 45 mins by mitotracker Red dye based fluorescence microscopic analysis. Format: ADME, cell-based.
In a further data set the test system is HepG2. The data set is described as follows: Cytotoxicity against human HepG2 cells after 24 hrs by MTS assay. The note with it: HepG2, 24 h. The class given is cell-based. On the technique in general: Tetrazolium assays rely on reduction of a dye to a coloured formazan, in cell work by metabolically active cells.
A short description of data set [2]: Drug uptake in mitochondria of asexual blood stage of Plasmodium falciparum D10-ACPLEADER-GFP ring forms infected in human erythrocytes at 150 uM after 30 to 45 mins by mitotracker Red dye based fluorescence microscopic analysis. Format: ADME, cell-based.
A short description of data set [3]: Drug uptake in apicoplast of asexual blood stage of Plasmodium falciparum D10-ACPLEADER-GFP ring forms infected in human erythrocytes at 150 uM after 30 to 45 mins by mitotracker Red dye based fluorescence microscopic analysis. The class given is ADME, cell-based.
A short description of data set [4]: Drug uptake in cytoplasm of asexual blood stage of Plasmodium falciparum D10-ACPLEADER-GFP trophozoite forms infected in human erythrocytes at 150 uM after 30 to 45 mins in presence of primaquine by mitotracker Red dye based fluorescence microscopic analysis. The class given is ADME, cell-based.
Data set [5] in a line: Drug uptake in relict plastid of asexual blood stage of Plasmodium falciparum D10-ACPLEADER-GFP trophozoite forms infected in human erythrocytes at 150 uM after 30 to 45 mins by mitotracker Red dye based fluorescence microscopic analysis. Format: ADME, cell-based.
Data set [6] is described as follows: Drug uptake in mitochondria of Plasmodium falciparum D10-ACPLEADER-GFP gametocyte stage 5 infected in human erythrocytes at 150 uM after 30 to 45 mins by mitotracker Red dye based fluorescence microscopic analysis. Format: ADME, cell-based.
A short description of data set [7]: Drug uptake in apicoplast of asexual blood stage of Plasmodium falciparum D10-ACPLEADER-GFP schizont forms infected in human erythrocytes at 150 uM after 30 to 45 mins by mitotracker Red dye based fluorescence microscopic analysis. Format: ADME, cell-based.
Data set [8] can be described thus: Drug uptake in food vacuole of asexual blood stage of Plasmodium falciparum D10-ACPLEADER-GFP trophozoite forms infected in human erythrocytes at 150 uM after 30 to 45 mins by mitotracker Red dye based fluorescence microscopic analysis. The class given is ADME, cell-based.
A short description of data set [9]: Drug uptake in cytoplasm of Plasmodium falciparum D10-ACPLEADER-GFP gametocyte stage 5 infected in human erythrocytes at 150 uM after 30 to 45 mins by mitotracker Red dye based fluorescence microscopic analysis. Format: ADME, cell-based.
A short description of data set [10]: Drug uptake in food vacuole of Plasmodium falciparum D10-ACPLEADER-GFP gametocyte stage 5 infected in human erythrocytes at 150 uM after 30 to 45 mins by mitotracker Red dye based fluorescence microscopic analysis. Format: ADME, cell-based.
Data set [11] in a line: Drug uptake in food vacuole of asexual blood stage of Plasmodium falciparum D10-ACPLEADER-GFP ring forms infected in human erythrocytes at 150 uM after 30 to 45 mins by mitotracker Red dye based fluorescence microscopic analysis. The class given is ADME, cell-based.
Data set [12] in a line: Drug uptake in cytoplasm of asexual blood stage of Plasmodium falciparum D10-ACPLEADER-GFP ring forms infected in human erythrocytes at 150 uM after 30 to 45 mins by mitotracker Red dye based fluorescence microscopic analysis. Format: ADME, cell-based.
A short description of data set [13]: Drug uptake in relict plastid of asexual blood stage of Plasmodium falciparum D10-ACPLEADER-GFP ring forms infected in human erythrocytes at 150 uM after 30 to 45 mins by mitotracker Red dye based fluorescence microscopic analysis. Format: ADME, cell-based.
The nature of data set [14]: Drug uptake in nucleus of asexual blood stage of Plasmodium falciparum D10-ACPLEADER-GFP schizont forms infected in human erythrocytes at 150 uM after 30 to 45 mins by mitotracker Red dye based fluorescence microscopic analysis. The class given is ADME, cell-based.
Data set [15] in a line: Drug uptake in mitochondria of asexual blood stage of Plasmodium falciparum D10-ACPLEADER-GFP schizont forms infected in human erythrocytes at 150 uM after 30 to 45 mins by mitotracker Red dye based fluorescence microscopic analysis. Format: ADME, cell-based.
A short description of data set [16]: Drug uptake in nucleus of asexual blood stage of Plasmodium falciparum D10-ACPLEADER-GFP ring forms infected in human erythrocytes at 150 uM after 30 to 45 mins by mitotracker Red dye based fluorescence microscopic analysis. Format: ADME, cell-based.
For the next data set, the system named is Plasmodium berghei. The data set is described as follows: Antiplasmodial activity against liver stage chloroquine-susceptible Plasmodium berghei 1052 C11 infected in HepG2 cells after 44 hrs by TopCount microplate luminescence assay. Format: functional, cell-based. The note with it: 1052 C11, HepG2, 44 h.
The nature of data set [17]: Drug uptake in mitochondria of Plasmodium falciparum D10-ACPLEADER-GFP gametocyte stage 4 infected in human erythrocytes at 150 uM after 30 to 45 mins by mitotracker Red dye based fluorescence microscopic analysis. Format: ADME, cell-based.
Data set [18] is described as follows: Drug uptake in nucleus of asexual blood stage of Plasmodium falciparum D10-ACPLEADER-GFP trophozoite forms infected in human erythrocytes at 150 uM after 30 to 45 mins by mitotracker Red dye based fluorescence microscopic analysis. The class given is ADME, cell-based.
Data set [19] relates to Plasmodium falciparum. Nature of the data set: Antimalarial activity against asexual blood stage of chloroquine-susceptible Plasmodium falciparum 3D7 infected in human erythrocytes by [3H]-Hypoxanthine uptake assay. Format: functional, cell-based.
The test system of data set [20] is Plasmodium falciparum. Nature of the data set: Antimalarial activity against asexual blood stage of chloroquine-resistant Plasmodium falciparum W2 infected in human erythrocytes by [3H]-Hypoxanthine uptake assay. The class given is functional, cell-based.
The nature of data set [21]: Drug uptake in apicoplast of asexual blood stage of Plasmodium falciparum D10-ACPLEADER-GFP trophozoite forms infected in human erythrocytes at 150 uM after 30 to 45 mins by mitotracker Red dye based fluorescence microscopic analysis. The class given is ADME, cell-based.
Data set [22] can be described thus: Drug uptake in food vacuole of Plasmodium falciparum D10-ACPLEADER-GFP gametocyte stage 4 infected in human erythrocytes at 150 uM after 30 to 45 mins by mitotracker Red dye based fluorescence microscopic analysis. The class given is ADME, cell-based.
Data set [23] deals with Plasmodium falciparum. Nature of the data set: Antimalarial activity against asexual blood stage of chloroquine-susceptible Plasmodium falciparum D6 infected in human erythrocytes by [3H]-Hypoxanthine uptake assay. Format: functional, cell-based.
Data set [24] is described as follows: Drug uptake in cytoplasm of Plasmodium falciparum D10-ACPLEADER-GFP gametocyte stage 4 infected in human erythrocytes at 150 uM after 30 to 45 mins by mitotracker Red dye based fluorescence microscopic analysis. The class given is ADME, cell-based.
A short description of data set [25]: Drug uptake in relict plastid of asexual blood stage of Plasmodium falciparum D10-ACPLEADER-GFP schizont forms infected in human erythrocytes at 150 uM after 30 to 45 mins by mitotracker Red dye based fluorescence microscopic analysis. Format: ADME, cell-based.
Data set [26] can be described thus: Drug uptake in human HepG2 cells infected with liver stage chloroquine-susceptible Plasmodium berghei 1052 C11 by mitotracker red dye based fluorescence microscopic analysis. The class given is ADME, cell-based.
Data set [27] in a line: Drug uptake in cytoplasm of asexual blood stage of Plasmodium falciparum D10-ACPLEADER-GFP trophozoite forms infected in human erythrocytes at 150 uM after 30 to 45 mins by mitotracker Red dye based fluorescence microscopic analysis. The class given is ADME, cell-based.
Data set [28] is described as follows: Drug uptake in mitochondria of asexual blood stage of Plasmodium falciparum D10-ACPLEADER-GFP trophozoite forms infected in human erythrocytes at 150 uM after 30 to 45 mins by mitotracker Red dye based fluorescence microscopic analysis. The class given is ADME, cell-based.
Data set [29] can be described thus: Drug uptake in cytoplasm of asexual blood stage of Plasmodium falciparum D10-ACPLEADER-GFP schizont forms infected in human erythrocytes at 150 uM after 30 to 45 mins by mitotracker Red dye based fluorescence microscopic analysis. The class given is ADME, cell-based.

One may read the IC50 as the midpoint of a concentration-inhibition curve. Higher therefore signals lower potency. For the compound `COc1cc(NC(C)CCCNC(=O)CCCc2cc(=O)oc3cc(O)ccc23)c2ncccc2c1` (stereo not drawn), the Drug uptake entry (in the data set with Erythrocyte; in [1]; in [2]; in data set [3]; in data set [4]; in data set [5]) was “Not Active” each time. In addition, the Drug uptake entry is reported as “Not Active” in [6]; “Not Active” in data set [7]; “Not Active” in data set [8]; “Active” in data set [9]; “Not Active” in [10]; “Not Active” in data set [11]. Also, the Drug uptake entry in data set [12] is recorded as “Active”; in [13] it was “Not Active”; in [14] it was “Not Active”; in data set [15], “Not Active”; in [16] it was “Not Active”; in data set [17], “Not Active”. The Drug uptake entry is given as “Not Active” in [18]; “Not Active” in data set [21]; “Not Active” in data set [22]; “Active” in data set [24]; “Not Active” in [25]; “Not Active” in data set [26]. Moreover, the figures for the Drug uptake result in data set [27], in data set [28] and in data set [29] were “Active”, “Not Active” and “Active”, respectively. Moreover, the IC50 with HepG2 came out at 44.5 µM; in the data set with Plasmodium berghei, 20.7 µM; with Plasmodium falciparum [19], 10.5 µM; in the data set with Plasmodium falciparum [20], 3.52 µM; in the data set on Plasmodium falciparum [23], 4.47 µM.

For `O=c1ccc2ccccc2o1` [COUMARIN], the Drug uptake result in the data set with Erythrocyte was “Not Active”.

`COc1cc(NC(C)CCCN)c2ncccc2c1` (stereo not drawn) [PRIMAQUINE]: the IC50 in the data set with HepG2 worked out at 101 µM; with Plasmodium berghei, 17.2 µM; with Plasmodium falciparum [19] it was 5.77 µM; in the data set with Plasmodium falciparum [20], 2.35 µM; with Plasmodium falciparum [23], 5.16 µM.

The record behind these values is ChEMBL document CHEMBL4043245, “Synthesis, characterization, and cellular localization of a fluorescent probe of the antimalarial 8-aminoquinoline primaquine” (Bioorg Med Chem Lett, 2017).
